The results in this text go back to ChEMBL document CHEMBL5042503, “"Clickable" Albumin Binders for Modulating the Tumor Uptake of Targeted Radiopharmaceuticals” (J Med Chem, 2022).

Series [1] can be described thus: Lipophilicity, logD of compound at pH 7.4 under shaking condition by HPLC analysis. To be noted: buffer. Type of series: physicochemical.
Series [2] has as its target T1, Albumin (Homo sapiens, UniProt P02768). As to the kind of experiment: Binding affinity to human serum albumin assessed as dissociation constant and measured after 5 mins by fluorescence based competition assay.
The target of series [3] is T1, Albumin. Kind of series: Binding affinity to human serum albumin assessed as dissociation constant by isothermal titration calorimetry. Background: ITC needs no label: the signal is the heat of the interaction.
Series [4] deals with T1, Albumin. Kind of series: Binding affinity to human serum albumin assessed as dissociation constant and measured after 5 mins by MST assay.
Series [5] addresses Somatostatin receptor type 2 (Mus musculus) (UniProt P30875). As to the kind of experiment: Binding affinity to mouse SST2 expressed in mouse pheochromocytoma cells assessed as maximum binding capacity for 1 hr by Nanodrop spectrophotometric analysis. The class given is cell-based. To be noted: Pheochromocytoma cell.
Series [6] addresses T1, Albumin. As to the kind of experiment: Binding affinity to human serum albumin assessed as dissociation constant using N-alpha-(6-FAM)-N-epsilon-(4-Iodophenylbutanoyl)-D-lysine as substrate and measured after 5 mins by fluorescence based competition assay.

T1 sequence (P02768 whole entry): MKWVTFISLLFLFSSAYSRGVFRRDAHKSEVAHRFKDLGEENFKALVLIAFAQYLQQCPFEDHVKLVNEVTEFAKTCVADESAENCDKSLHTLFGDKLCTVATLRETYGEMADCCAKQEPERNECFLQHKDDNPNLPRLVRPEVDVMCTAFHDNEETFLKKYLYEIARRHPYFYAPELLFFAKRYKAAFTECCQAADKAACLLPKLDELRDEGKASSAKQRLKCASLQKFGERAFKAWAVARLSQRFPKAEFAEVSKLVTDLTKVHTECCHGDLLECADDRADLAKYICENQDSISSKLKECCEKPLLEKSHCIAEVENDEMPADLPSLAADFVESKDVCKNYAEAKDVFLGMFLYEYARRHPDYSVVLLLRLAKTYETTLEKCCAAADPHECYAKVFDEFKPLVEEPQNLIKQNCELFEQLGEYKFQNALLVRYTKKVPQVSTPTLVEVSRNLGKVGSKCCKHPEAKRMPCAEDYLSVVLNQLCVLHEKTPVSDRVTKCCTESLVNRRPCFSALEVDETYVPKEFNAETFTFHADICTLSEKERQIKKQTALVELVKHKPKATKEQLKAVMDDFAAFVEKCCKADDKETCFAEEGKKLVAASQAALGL
Sequence of Somatostatin receptor type 2 (Mus musculus) (P30875 whole entry): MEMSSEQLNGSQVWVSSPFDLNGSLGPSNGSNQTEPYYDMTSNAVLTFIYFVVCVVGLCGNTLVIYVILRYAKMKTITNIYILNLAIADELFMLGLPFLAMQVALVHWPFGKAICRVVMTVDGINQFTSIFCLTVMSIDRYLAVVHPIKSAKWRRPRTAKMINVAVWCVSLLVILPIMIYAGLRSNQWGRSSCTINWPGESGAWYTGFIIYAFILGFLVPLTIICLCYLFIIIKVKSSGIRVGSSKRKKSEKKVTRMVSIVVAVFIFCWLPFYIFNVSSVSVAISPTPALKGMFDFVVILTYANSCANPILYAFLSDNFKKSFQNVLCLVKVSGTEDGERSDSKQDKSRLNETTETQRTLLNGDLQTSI

Turning to `[N-]=[N+]=Nc1ccc(C(=O)N[C@@H](CCCCNC(=O)CCCc2ccc(I)cc2)C(N)=O)cc1`, the log distribution coefficient (logD) in series [1] was 3.13.
Take `[N-]=[N+]=Nc1ccc(C(=O)N[C@@H](CCCCNC(=O)CCCc2ccc(I)cc2)C(=O)O)cc1`: the dissociation constant Kd in series [2] is 0.36 µM. Also, the log distribution coefficient (logD) in series [1] came to 1.75.
For `C#Cc1ccc(C(=O)N[C@@H](CCCCNC(=O)CCCc2ccc(I)cc2)C(=O)O)cc1`, the Kd in series [2] came out at 0.34 µM.
As for `NC(=O)[C@H](CC(=O)O)NC(=O)CCCc1ccc(I)cc1`, the Kd in series [2] is 100 µM.
The same measure, in the same setting: the result for `[N-]=[N+]=NCCCCC(=O)N[C@@H](CCCCNC(=O)CCCc1ccc(I)cc1)C(=O)O` reads 6 µM; that for `[N-]=[N+]=NCCCCC(=O)N[C@H](CCCCNC(=O)CCCc1ccc(I)cc1)C(=O)O`, 8 µM.
Same read-out and setting: the result for `O=C(CCCc1ccc(I)cc1)NCCCC[C@H](C(=O)O)n1cc(-c2ccccc2)nn1` reads 4 µM.
Regarding `CC(=O)N[C@@H](CCCCNC(=O)CCCc1ccc(I)cc1)C(=O)O`, the dissociation constant (Kd) stood at 3.2 µM in series [2] and 9 µM in series [3].
With `[N-]=[N+]=Nc1ccc(C(=O)N[C@@H](CCCCNC(=O)CCCc2ccccc2)C(=O)O)cc1`, the equilibrium dissociation constant (Kd) in series [2] was 36 µM.
For the compound `CC(=O)N[C@@H](CCCCNC(=O)CCCc1ccc(I)cc1)C(N)=O`, the dissociation constant Kd in series [2] turned out to be 70 µM.
On to `COC(=O)[C@H](CCCCNC(=O)CCCc1ccc(I)cc1)NC(C)=O`, for which, in series [2], the Kd was 110 µM.
`CC(C)Cc1ccc(C(C)C(=O)NCCCC[C@H](NC(=O)c2ccc(N=[N+]=[N-])cc2)C(=O)O)cc1` (stereo not given in full): the Kd in series [2] was found to be 4 µM.
For the compound `[N-]=[N+]=Nc1ccc(C(=O)N[C@H](CCCCNC(=O)CCCc2ccc(I)cc2)C(=O)O)cc1`, the values for the Kd in series [2] and in series [4] were 1.2 µM and 2.6 µM, respectively.
Regarding `Cc1ccc(CCCC(=O)NCCCC[C@H](NC(=O)c2ccc(N=[N+]=[N-])cc2)C(=O)O)cc1`, in series [2], the dissociation constant Kd was found to be 3 µM.
Same read-out and setting: the result for `[N-]=[N+]=Nc1ccc(C(=O)N[C@@H](CCCCNC(=O)CCCc2ccc(C(F)(F)F)cc2)C(=O)O)cc1` reads 4.1 µM.
Turning to `O=C(O)CN1CCN(CC(=O)O)CCN(C(CCC(=O)N[C@@H](CCCCNC(=O)CCCc2ccc(I)cc2)C(=O)O)C(=O)O)CC1` (stereo not given in full), the Kd in series [2] amounted to 8 µM.
As for `NC(=O)[C@H](CCC(=O)O)NC(=O)CCCc1ccc(I)cc1`, the Kd in series [2] was 80 µM.
For `C#CCCC(=O)N[C@H](CCCCNC(=O)CCCc1ccc(I)cc1)C(=O)O`, in series [2], the Kd stood at 7.3 µM.
For [64Cu]Cu-DOTA-TATE, the Bmax in series [5] worked out at 779 fmol/mg.
For `[N-]=[N+]=Nc1ccc(C(=O)N[C@@H](CCCCNC(=O)CCCc2ccc(Br)cc2)C(=O)O)cc1`, in series [2], the Kd turned out to be 2 µM.
Turning to `CC(=O)N[C@H](CCCCNC(=O)CCCc1ccc(I)cc1)C(=O)O`, the equilibrium dissociation constant (Kd) in series [2] was determined as 7 µM; in series [4], 8 µM; in series [3], 3.2 µM.
With `O=C(CCCc1ccc(I)cc1)NCCCC[C@@H](NC(=O)c1ccc(C(=O)O)c(-c2c3ccc(=O)cc-3oc3cc(O)ccc23)c1)C(=O)O`, in series [6], the Kd is 230 nM.
In the case of `[N-]=[N+]=Nc1ccc(C(=O)N[C@@H](CCCCNC(=O)CCCc2ccc(Cl)cc2)C(=O)O)cc1`, the dissociation constant (Kd) in series [2] is 3.5 µM.
For the compound [64Cu]Cu-NODAGA-TATE, the Bmax in series [5] worked out at 383 fmol/mg.
Turning to `[N-]=[N+]=Nc1ccc(C(=O)N[C@@H](CCCCNC(=O)CCCc2ccc(F)cc2)C(=O)O)cc1`, the Kd in series [2] was 26 µM.

As a reminder, the logD is the decadic logarithm of the distribution of all forms, ionised or not, between an organic phase and buffer at a given pH. The low end stands for a more hydrophilic compound, the high end for a more lipophilic compound. A word on the Kd: it is the free concentration of one partner at which half of the binding sites on the other are occupied at equilibrium, for simple one-to-one binding.
